Laboratory results taken from patent US20260284005A1, “INHIBITING MITOGEN-ACTIVATED PROTEIN (MAP)/ERK KINASE (MEK)1 AND MEK2 AND RELATED METHODS OF TREATMENT” (priority 2023, published 2026).

How the values were obtained:
[1] = system: HT-29 BRAF^V600E colorectal cancer xenograft; test: HT-29 colorectal xenograft tumor model; format: in vivo, athymic nude mice; settings: HT-29 BRAFV600E xenograft
Source text: An integrated translational platform with integrated bioinformatics utilized patient-aligned model systems was used to identify key factors that help predict response to Compound A and its unique DCI profile.

HT-29 cells = test: 3D-TGA; format: cell-based, human; settings: Homo sapiens, HT-29, read-out: IC50 in 3D-TGA Encorafenib
Procedure, shortened: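 Antiproliferative activity was scored as percentage EdU-positive cells from high-content images of 3D cultures embedded in BME with custom medium under low oxygen (5% O2, 5% CO2, 37° C).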

LS411N cells = test: 3D-TGA; format: cell-based; settings: Homo sapiens, LS-411N; LS411N, COL, BRAF V600E; read-out: IC50 in 3D-TGA Encorafenib
A375 cells = test: 3D-TGA; format: cell-based; settings: Homo sapiens, A-375, read-out: IC50 in 3D-TGA Encorafenib
Procedure: Cells were seeded in 3D cultures in a black-walled, clear-bottom, non-tissue culture treated, 384-well plate (3000 cells per well) using a 1:1 mixture of BME and a custom media and grown in a humidified incubator with 5% CO2 and 5% O2, which approximates capillary levels for each gas, at 37° C. […] Cells were assessed for cell proliferation using EdU cell proliferation staining. […] Cells were permeabilized with 30 μL of filtered 0.5% Triton X-100 in PBS for 20 minutes at room temperature. Samples were washed twice gently with PBS. Cells were stained utilizing click-iT chemistry by adding 20 μL of staining cocktail containing 2 mM copper sulfate, 8 μM sulfo-Cy5-azide, and 20 mg/ml ascorbic acid in PBS and incubated 30-60 minutes at room temperature in dark. […] Plates were imaged with the Molecular Devices Pico ImageXpress. Images were segmented and percentage of cells with EdU incorporation was quantified to calculate antiproliferative effects of the drugs.
Five (5)-ethynyl-2′-deoxyuridine (EdU) data was represented as percentage EdU positive cells quantified by high content imaging from the Molecular Devices ImageXpress® Pico.

COC(=O)N[C@@H](C)CNc1nccc(-c2cn(C(C)C)nc2-c2cc(Cl)cc(NS(C)(=O)=O)c2F)n1 [encorafenib]
tumor growth inhibition, monotherapy [1]: superior tumor growth inhibition to binimetinib | IC50 (HT-29 cells): > 1000 nM | IC50 (LS411N cells): > 1000 nM | IC50 (A375 cells): < 50 nM
